“And” between values parts separate entries of the source, which are not always exact repeats. Equal entries are not always repeated.

For one experiment, the system named is U2OS cells. Briefly: Cellular AMP:ATP ratio via LC:MS in U2OS cells. It is filed as cell-based, human. How it is done:
(§1) T-Rex U2OS cells carrying a Flp Recombinase Target (FRT) site were generated as described previously and grown in Dulbecco’s Modified Eagle’s Medium (DMEM) supplemented with 10% (v/v) FBS and 1% (v/v) penicillin/streptomycin.
SDS-PAGE was performed using precast NuPAGE Tris-acetate 3–8% gradient polyacrylamide gels in Tris-acetate running buffer when analyzing ACC, GBF1, or Raptor, or NuPAGE Bis-Tris 4–12% gradient polyacrylamide gels in the MOPS buffer system (ThermoFisher Scientific, Waltham, MA, USA) for other proteins (unless stated otherwise). Proteins were transferred to nitrocellulose membranes using the iBlot 2 system (ThermoFisher Scientific). Membranes were enhanced if necessary using SuperSignal Western Blot Enhancer (ThermoFisher Scientific), then blocked for 1 h in Li-Cor Odyssey blocking buffer. The membranes were probed with the appropriate primary antibody ([…]) overnight at 4 °C. Detection was performed using secondary antibody or streptavidin probe (for total ACC) coupled to IR 680 or IR 800 dye, and the membranes were scanned using the LICOR Odyssey IR imager. Protein concentrations were determined by Coomassie Blue binding with bovine serum albumin as a standard. The cellular levels of AMP and ATP were determined via direct perchloric acid extraction from cells, with LC:MS used to estimate the levels of each nucleotide.

In another experiment the test system is AMPK in U2OS cells. The experiment in a line: AMPK activity in anti-α1/-α2 immunoprecipitates from treated U2OS cells. It is filed as cell-based, human.
Excerpt: as §1
Cells were lysed rapidly in situ on culture plates using ice-cold lysis medium containing phosphatase inhibitors, as described previously.
(§2) AMPK assays measured the transfer of radioactivity from labelled ATP to a peptide substrate, which was separated from unreacted ATP by binding to P81 paper. This assay was described previously, except that we used [γ-^33P]ATP rather than [γ-^32P]ATP. The peptide substrate was the AMARA peptide in all experiments other than one, which analyzed allosteric activation by AMP (Figure 2A), when, for technical reasons, the SAMS peptide was used instead. With purified preparations of AMPK, it was assayed in solution, but for assays in cell lysates (Figure 3D and Figure 4D), it was first immunoprecipitated using a mixture of anti-α1 and -α2 antibodies and assayed in resuspended immunoprecipitates. After the initial immunoprecipitation of lysate containing 80 µg of protein, the pellets were washed twice with 1 mL of high salt IP buffer (50 mM Tris-HCL, pH 7.4 at 4 °C, 1 M NaCl, 1 mM EDTA, 1 mM EGTA, 50 mM NaF, 5 mM Na pyrophosphate, 1 mM dithiothreitol, 0.1% (v/v) Triton X-100) and twice with 1 mL of low salt IP buffer (as above but only 150 mM NaCl), followed by a final wash in 1 mL of assay buffer (50 mM Na Hepes, pH7.4, 150 mM NaCl, 1 mM dithiothreitol, 0.02% (v/v) Brij-35). After each wash, the pellet was recovered via centrifugation (16,000× g, 3 min) and then resuspended. The final resuspended pellets from each biological replicate were divided into two aliquots (40 µg lysate protein) to provide technical replicates and assayed as above.

In a further experiment the target is human α1β1γ1 complex (Homo sapiens, UniProt Q13131). Briefly: Cell-free kinase assay of bacterially expressed human α1β1γ1 complex phosphorylated on Thr172 by CaMKK2. In kind it is biochemical. The settings on record: ATP 200 µM; read-out: IC50, inhibition of human α1β1γ1 complex.
Excerpt: as §2, with “The final resuspended pellets from each biological replicate were divided into two aliquots (40 µg lysate protein) to provide technical replicates and assayed as above.” left out

Experiment [1] relates to native AMPK purified from rat liver. The experiment in a line: Cell-free kinase assay of purified rat liver AMPK. The settings on record: ATP 200 µM; for IC50: read-out: IC50, inhibition of rat liver AMPK complexes. In kind it is biochemical. The text has this: AMPK assays measured the transfer of radioactivity from labelled ATP to a peptide substrate, which was separated from unreacted ATP by binding to P81 paper. This assay was described previously, except that we used [γ-^33P]ATP rather than [γ-^32P]ATP. The peptide substrate was the AMARA peptide in all experiments other than one, which analyzed allosteric activation by AMP (Figure 2A), when, for technical reasons, the SAMS peptide was used instead. […] After each wash, the pellet was recovered via centrifugation (16,000× g, 3 min) and then resuspended. The final resuspended pellets from each biological replicate were divided into two aliquots (40 µg lysate protein) to provide technical replicates and assayed as above.

For experiment [2], the system named is endogenous AMPK from HEK-293 cells. The experiment in a line: Activation of dephosphorylated immunoprecipitated AMPK by the LKB1 complex. In kind it is biochemical, human. The settings on record: increasing concentrations; SBI-0206965 effect reversed above 1 µM. How it is done: AMPK was immunoprecipitated from HEK-293 cell lysate (2.5 mg protein) using a mixture of anti-α1 and -α2 antibodies. After extensive washing, it was incubated in a shaking incubator at 30 °C for 20 min in Hepes buffer with 50 mM MgCl2 and sufficient PPM1A to yield about 90% inactivation (total volume of 250 µL). The reaction was terminated by adding 1 mL of IP buffer and, after additional washing in the same buffer, aliquots equivalent to 80 µg of lysate protein were incubated in a shaking incubator at 30 °C for 10 min in Hepes buffer with […] and 5 mM MgCl2, with or without a limiting amount of LKB1:STRADα:MO25α complex (0.5 µg) in the presence or absence of 200 µM AMP or the indicated concentration of BAY-3827 or SBI-0206965 (total volume of 50 µL). The reaction was terminated by adding 1 mL of IP buffer and, after additional washing in the same buffer and a final wash into Hepes buffer, AMPK activity was determined using kinase assays as above.

Experiment [3] has as its target T1, isolated kinase domain of the human α2 isoform (residues 1–310) (Homo sapiens, UniProt P54646).
T1 construct: human GST-tagged α2 kinase domain (1–310) was produced as described; GST; made in house
Briefly: Cell-free kinase assay of isolated α2 kinase domain phosphorylated on Thr172 by CaMKK2. In kind it is biochemical. The following applies: for IC50: ATP 200 µM, read-out: IC50, inhibition of human α2 kinase domain.
Excerpt: as §2
Bacterially expressed heterotrimers and kinase domain constructs (Figure 1B–D) were activated through Thr172 phosphorylation using ATP and GST-tagged CaMKK2, and CaMKK2 was removed via passage through glutathione-Sepharose, as described previously.

The next experiment deals with T2, PPM1A.
T2 construct: made in house
The experiment in a line: PPM1A activity using p-nitrophenyl phosphate. It is filed as biochemical. The following applies: p-nitrophenyl phosphate substrate, concentrations as in Figure 5A. How it is done: To directly determine LKB1 activity, kinase assays were performed in the presence or absence of the indicated concentration of BAY-3827 or SBI-0206965 as for AMPK, except that LKBtide was used as a peptide substrate. PPM1A activity was determined using p-nitrophenyl phosphate (pNPP) as a substrate. PPM1A (5 µg) was incubated with 50 mM pNPP and 50 mM MgCl2 in Hepes buffer in the presence of a vehicle or the indicated concentration of BAY-3827 or SBI-0206965 for 10 min at 30 °C. The reaction was quenched by the addition of 1 mL of 0.5 M EDTA and the amount of product, p-nitrophenol, determined by measuring absorbance at 405 nm.

Chain of human α1β1γ1 complex (Q13131 whole entry): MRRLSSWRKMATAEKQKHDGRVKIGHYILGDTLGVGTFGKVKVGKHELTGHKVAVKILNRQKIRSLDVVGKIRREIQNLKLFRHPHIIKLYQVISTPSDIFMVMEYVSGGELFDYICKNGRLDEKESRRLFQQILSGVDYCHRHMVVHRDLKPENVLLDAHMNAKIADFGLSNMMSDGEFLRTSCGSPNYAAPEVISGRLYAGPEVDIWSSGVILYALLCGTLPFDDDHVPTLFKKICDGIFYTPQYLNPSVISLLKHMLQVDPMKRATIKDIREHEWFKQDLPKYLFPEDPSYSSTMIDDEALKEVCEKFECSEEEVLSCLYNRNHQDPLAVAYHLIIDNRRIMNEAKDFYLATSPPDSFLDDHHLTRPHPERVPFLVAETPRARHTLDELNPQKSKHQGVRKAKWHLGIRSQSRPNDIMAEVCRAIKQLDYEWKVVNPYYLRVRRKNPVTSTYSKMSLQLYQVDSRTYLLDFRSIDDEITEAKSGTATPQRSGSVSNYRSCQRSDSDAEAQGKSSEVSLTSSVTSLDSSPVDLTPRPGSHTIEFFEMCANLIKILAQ
Chain of human α1β1γ1 complex (P54619 whole entry, further chain): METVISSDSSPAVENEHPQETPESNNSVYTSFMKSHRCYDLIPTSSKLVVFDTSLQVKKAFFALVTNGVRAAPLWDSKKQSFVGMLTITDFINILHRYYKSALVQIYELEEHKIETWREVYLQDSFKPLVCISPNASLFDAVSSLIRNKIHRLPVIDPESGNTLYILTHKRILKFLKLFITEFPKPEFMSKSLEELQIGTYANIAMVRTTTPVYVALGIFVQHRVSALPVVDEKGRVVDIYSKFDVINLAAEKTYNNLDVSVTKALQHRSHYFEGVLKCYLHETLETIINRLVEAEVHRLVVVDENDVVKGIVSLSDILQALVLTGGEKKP
Chain of human α1β1γ1 complex (Q9Y478 2-270, further chain): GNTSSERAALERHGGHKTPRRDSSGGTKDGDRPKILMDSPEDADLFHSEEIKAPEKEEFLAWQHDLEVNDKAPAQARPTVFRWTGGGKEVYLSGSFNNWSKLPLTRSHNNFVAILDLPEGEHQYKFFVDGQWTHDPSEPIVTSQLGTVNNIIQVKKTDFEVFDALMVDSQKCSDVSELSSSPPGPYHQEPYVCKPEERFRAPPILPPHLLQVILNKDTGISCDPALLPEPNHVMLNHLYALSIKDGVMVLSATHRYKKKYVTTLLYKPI
T1 sequence (P54646 1-310): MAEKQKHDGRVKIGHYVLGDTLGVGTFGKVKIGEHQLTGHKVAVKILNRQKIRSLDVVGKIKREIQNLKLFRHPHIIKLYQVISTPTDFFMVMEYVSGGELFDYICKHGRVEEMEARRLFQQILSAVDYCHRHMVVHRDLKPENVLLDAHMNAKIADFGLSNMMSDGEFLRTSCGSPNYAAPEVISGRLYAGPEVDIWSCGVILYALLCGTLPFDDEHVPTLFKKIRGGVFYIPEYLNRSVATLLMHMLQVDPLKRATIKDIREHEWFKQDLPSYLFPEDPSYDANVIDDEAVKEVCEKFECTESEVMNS

By IC50 is commonly meant the concentration needed to halve the response being measured. For the molecule `CNC(=O)c1ccccc1Oc1nc(Nc2cc(OC)c(OC)c(OC)c2)ncc1Br` [SBI-0206965], the “increase in cellular AMP:ATP ratio” value with U2OS cells (300 µM, 1 h incubation) was over 30 fold. In addition, the “effect on AMPK activity in immunoprecipitates” value in the experiment on AMPK in U2OS cells (U2OS cells, MK-8722 and increasing concentrations of inhibitor) is on record as “increased with a similar biphasic pattern”. Besides, the IC50 at human α1β1γ1 complex was 247 nM and 250 nM; in experiment [1], 360 nM; in experiment [3], 545 nM. In experiment [2], the “effect on activation of AMPK by LKB1” value was “progressively promoted activation by LKB1”. Also, the “effect on activity of PPM1A” value in the experiment on PPM1A is reported as “Lack of effect”.
Broadly, the EC50 is the midpoint of the concentration-response curve. As to `CCc1ccccc1C(=O)Nc1n[nH]c2c(C)c(F)c(C3C(C#N)=C(C)N(C)C(C)=C3C#N)cc12` [BAY-3827], in the experiment with U2OS cells (all concentrations used), the “effect on cellular AMP:ATP ratios” value was “did not cause any change”. Also, the EC50 with AMPK in U2OS cells (Homo sapiens, U2OS cells treated with inhibitor and MK-8722, read-out: EC50, activation of AMPK activity in immunoprecipitates) turned out to be 84 nM. Moreover, the “Activation of AMPK activity in immunoprecipitates” value in the experiment with AMPK in U2OS cells (U2OS cells treated with inhibitor and MK-8722) is on record as 2.5 fold. Also, the values for the IC50 (at human α1β1γ1 complex; in experiment [1]; in experiment [3]) were 25 nM, 17 nM and 89 nM, respectively. Further, the “fold more potent than SBI-0206965 against purified rat liver AMPK” value in experiment [1] was over 20 fold. For the same molecule, the “effect on activation of AMPK by LKB1” value in experiment [2] was “little or no effect”. Also, the “Apparent Vmax” value stood at 2.09 µmol/min/mg in experiment [3] (BAY-3827 10 nM), 1.78 µmol/min/mg in experiment [3] (BAY-3827 30 nM), 1.69 µmol/min/mg in experiment [3] (BAY-3827 100 nM) and 1.27 µmol/min/mg in experiment [3] (BAY-3827 300 nM). For the same molecule, the “effect on activity of PPM1A” value in the experiment on PPM1A is listed as “Lack of effect”.

These data come from paper PMC10778976, “BAY-3827 and SBI-0206965: Potent AMPK Inhibitors That Paradoxically Increase Thr172 Phosphorylation” (International Journal of Molecular Sciences, 2023).
